According to patent US4198424A, “Substituted 1-phenyl-2-pyrrolidin-2-yl-ethanols, their synthesis, their use and their compositions” (Byk Gulden Lomberg Chemische Fabrik GmbH, priority 1977, dated 1980):

How the values were obtained:
[1] = Determination of the lethal effect (LD50, oral, mouse); conditions: in vivo, per os, 48 hours observation
Protocol: The toxicity investigations were carried out on female NMRI mice: body weight 22 to 26 g. The animals received food and water (Altromin®) ad libitum. The substances to be tested were administered orally with the oesophageal sound as solutions of various concentration in a volume of from 10 to 20 ml/kg; 5 animals per dose were kept in Makrolon® cages, Type II. The observation duration was 48 hours. The DL50, the dose with which 50% of the animals died, was determined graphically from the dose effect curve.

albino mice [2] = assay: Hot plate test (analgesia, mouse); type: in vivo; conditions: po, per os; for ED50: dose prolonging reaction time by 50%; for ED40: *ED40 values, read-out: ED40 Hot plate (values marked *)
Protocol: (a) Hot plate test: female albino mice were placed on a 50° C. hot plate and the reaction time until they licked their paws was recorded with a stop watch. Normal values lie in the range of from 7 to 8 seconds. The substances tested cause delayed reaction to the heat stimulus, i.e. reduced thermal-pain sensitivity. The dose which prolongs the reaction time by 50% was determined. Literature: Eddy, N. B., and Leimbach, D., J. Pharmacol. Exp. Ther., 107 (1953) 385.

albino mice [3] = assay: Tail-Flick test (analgesia, mouse); type: in vivo; conditions: po, per os, dose prolonging reaction time by 50%
Protocol: (§1) (b) Tail-Flick test: a thermal pain is caused at the tail root of female albino mice or rats with a focused heat ray, and the time until the tail is drawn away is recorded with a stop watch. Normally, it lies in the range of from 4 to 5 seconds. The substances tested cause delayed reaction to the heat pain, i.e. reduced thermal-pain reaction. The dose which prolongs the reaction time by 50% was determined. Literature: D'Amour, F. E., and Smith, D. L., J. Pharmacol. Exp. Ther., 72 (1941) 74.

albino mice [4] = assay: Writhing test (acetic acid writhing, analgesia, mouse); type: in vivo; conditions: po, per os; for ED50: dose reducing number of writhings by 50%; for ED40: *ED40 values, read-out: ED40 Writhing (values marked *)
Protocol: (c) Writhing test (acetic acid writhing): intraperitoneal injection of 0.2 ml/20 g mouse of a 0.75% strength acetic acid solution induces (in albino mice) a typical syndrome, called writhing, which proceeds over the body with dorsal flection. These writhings, which occur in the course of the first half hour after administration, are counted in the space of time of from 5 to 20 minutes after administration. The substances tested cause a reduction of the number of writhing syndromes. […] Literature: Koster, Anderson, Fed. Proc., 18 (1959) 42.

rats = assay: Tail-Flick test (analgesia, rat); type: in vivo; conditions: po, per os, dose prolonging reaction time by 50%
Protocol: as §1

mice = assay: Withdrawal jumping of mice after treatment and intraperitoneal application of naloxone; type: in vivo, mouse; conditions: for % of the animals reacting with "jumping": naloxone intraperitoneal, 3 and 6 given 200 mg/kg twice daily over 5 weekdays, NaCl control 20; for withdrawal jumping after naloxone (in words): 200 mg/kg twice daily over 5 weekdays, naloxone 30 mg/kg i.p. 1 hour after last dose
Protocol: (§2) According to Way et al. [J. Pharmacol. Exp. Ther., 167 (1969) 1] mice, which are dependent on analgesics with a morphine-like effect, react with withdrawal jumping immediately after intraperitoneal administration of naloxone. According to Saelens and co-workers [Arch. Int. Pharmacodyn. […] 2 cannot be tested accordingly because of its toxicity.
(§3) 3 and 6 were administered to mice [200 mg/kg twice daily over 5 weekdays].

[5] = Saelens et al., Arch. Int. Pharmacodyn. Ther., 190 (1971) 213; cited from earlier work
[6] = Withdrawal jumping of mice after treatment and intraperitoneal application of naloxone; type: in vivo, mouse; conditions: mouse, in vivo, not testable for jumping, read-out: lethality in withdrawal jumping test
Protocol: as §2, §3

albino mice [7] = assay: Tail-Flick test (analgesia, mouse); type: in vivo; conditions: po, per os, *ED40 values, read-out: ED40 Tail-Flick (values marked *)

Row | Compound | LD50 at 48 h [1] | ED50 (albino mice [2]) | ED50 (albino mice [3]) | ED50 (albino mice [4]) | ED40 (albino mice [4]) | ED50 (rats) | % of the animals reacting with "jumping" (mice) | dependence development [5] | withdrawal jumping after naloxone (in words) (mice) | mortality [6] | ED40 (albino mice [2]) | ED40 (albino mice [7])
1 | COc1cccc([C@H](O)C[C@H]2CCCN2C)c1 (relative stereo) [Compound 5, (R*,R*)-1-(3-methoxyphenyl)-2-(1-methyl-2-pyrrolidinyl)ethanol] | 490 mg/kg | 50 mg/kg | 70 mg/kg | 40 mg/kg |  |  |  |  |  |  |  | 
2 | CN1CCCC1CC(O)c1cccc(O)c1 (stereo not drawn) [Compound 10, 1-(3-hydroxyphenyl)-2-(1-methyl-2-pyrrolidinyl)-ethanol] | 420 mg/kg |  |  | 125 mg/kg |  |  |  |  |  |  |  | 
3 | Cc1cccc([C@H](O)C[C@@H]2CCCN2C)c1 (relative stereo) [Compound 7, (R*,S*)-1-(3-methylphenyl)-2-(1-methyl-2-pyrrolidinyl)-ethanol] | 300 mg/kg | 100 mg/kg | 50 mg/kg |  | 75 mg/kg |  |  |  |  |  |  | 
4 | CN1CCCC1CC(O)c1cccc(Cl)c1 (stereo not drawn) [Compound 11, 1-(3-chlorophenyl)-2-(1-methyl-2-pyrrolidinyl)-ethanol] | 330 mg/kg |  | 65 mg/kg | 125 mg/kg |  |  |  |  |  |  |  | 
5 | CCC(=O)O[C@](Cc1ccccc1)(c1ccccc1)[C@H](C)CN(C)C [Compound 1, dextropropoxyphene, reference compound] | 140 mg/kg | 15 mg/kg | 25 mg/kg | 30 mg/kg |  | 25 mg/kg | 100% | a dependence development is evidenced |  |  |  | 
6 | Cc1cccc(C(O)CC2CCCN2C)c1 (stereo not drawn) [Compound 6, 2-(1-methylpyrrolidin-2-yl)-1-(3-tolyl)ethanol] | 420 mg/kg | 100 mg/kg | 35 mg/kg | 75 mg/kg |  | 10 mg/kg | 10% |  | did not lead to withdrawal jumping |  |  | 
7 | CN1CCOC(c2ccccc2)c2ccccc2C1 (stereo not drawn) [Compound 2, nefopam, reference compound] | 180 mg/kg | 30 mg/kg | 20 mg/kg | 25 mg/kg |  | 10 mg/kg |  |  |  | 80% |  | 
8 | COc1cccc(C(O)CC2CCCN2C(C)C)c1 (stereo not drawn) [Compound 9, 2-(1-isopropyl-2-pyrrolidinyl)-1-(3-methoxyphenyl)ethanol] | 340 mg/kg |  |  | 75 mg/kg |  |  |  |  |  |  | 100 mg/kg | 75 mg/kg
9 | COc1cccc([C@@H](C[C@@H]2CCCN2C)OC(C)=O)c1 (relative stereo) [Compound 13, (R*,S*)-acetic acid-[1-(3-methoxyphenyl)-2-(1-methyl-2-pyrrolidinyl)-ethyl]-ester] | 440 mg/kg |  |  |  | 75 mg/kg |  |  |  |  |  |  | 
10 | COc1cccc(C(O)CC2CCCN2C)c1 (stereo not drawn) [Compound 3, 1-(3-methoxyphenyl)-2-(1-methylpyrrolidin-2-yl)-ethanol] | 600 mg/kg | 30 mg/kg | 25 mg/kg | 15 mg/kg |  | 7 mg/kg | 20% |  | did not lead to withdrawal jumping |  |  | 
11 | CCCCCCN1CCCC1CC(O)c1cccc(OC)c1 (stereo not drawn) [Compound 12, 2-(1-n-hexyl-2-pyrrolidinyl)-1-(3-methoxyphenyl)-ethanol] | 180 mg/kg |  | 70 mg/kg |  | 75 mg/kg |  |  |  |  |  |  | 
12 | COc1cccc([C@H](O)C[C@@H]2CCCN2C)c1 (relative stereo) [Compound 4, (R*,S*)-1-(3-methoxyphenyl)-2-(1-methyl-2-pyrrolidinyl)-ethanol] | 420 mg/kg | 100 mg/kg | 60 mg/kg | 50 mg/kg |  |  |  |  |  |  |  | 
13 | Cc1cccc([C@H](O)C[C@H]2CCCN2C)c1 (relative stereo) [Compound 8, (R*,R*)-1-(3-methylphenyl)-2-(1-methyl-2-pyrrolidinyl)-ethanol] | 320 mg/kg |  | 10 mg/kg |  | 75 mg/kg |  |  |  |  |  | 100 mg/kg | 
